Values quoted from earlier work as cited in article PMC11084461, “The First Reciprocal Activities of Chiral Peptide Pharmaceuticals: Thymogen and Thymodepressin, as Examples” (International Journal of Molecular Sciences, 2024).
Where two headings read alike, the source gives them in different places.

Tests used:
[1] = test system: hematopoietic progenitor cells; parameters: method as in ref 74 = [74]; 74. Semina O.V. Semenets T.N. Deigin V.I. Korotkov A.M. Vinogradova Y.E. Poverenny A.M. Stimulation with Thymogen (EW), a dipeptide that has immunoprotective properties to restore hematopoiesis in irr; settings: mice; for Protective effect on hematopoietic progenitor cells after Cytosar treatment: administered two days before Cytosar injection
autoantibodies = test system: autoantibodies; parameters: method as in ref 97 = [97]; 97. Krasilshchikova M. Leonov V. Zatsepina O. Deigin V. Immunosuppressor studies of Thymodepressin in the experimental autoimmune model Immunology 2009 5 290 294; settings: SJL/J mouse
thymocyte regeneration = test system: thymocyte regeneration; parameters: method as in PMID 6971758; settings: same conditions for all isomers
[2] = test system: hematopoietic stem cell progenitors; parameters: method as in ref 82 = [82]; 82. Vladimirskaya E.B. Osipova Y.E. Kaznacheev K.S. Ivanova K.A. Deigin V.I. Rumyantsev A.G. The effect of Thymodepressin on the proliferation of human hematopoietic progenitor cells Hematol. Transfus; settings: in vitro in methylcellulose, MTT test; dose range from 1 µg/mL to 10 µg/mL
[3] = test system: colony-forming unit (CFU); parameters: method as in PMID 30927190; settings: lethally irradiated mice, i/p on days 1, 2 and 3 after allogeneic bone marrow transplantation
bone marrow cells = test system: bone marrow cells; parameters: method as in PMID 16307056; settings: mice irradiated 4 Gy, treated seven days after irradiation, read on day eight
bone marrow = test system: bone marrow; parameters: method as in ref 92 = [92]; 92. Dyadkin V.Y. Shamov B.A. The experimental application of Thymodepressin in patients with psoriasis Dermatology 2003 1 36; settings: pre-treatment two days before irradiation; seven days after irradiation, persisted 14 observation days
psoriasis vulgaris = test system: psoriasis vulgaris; parameters: method as in PMID 15199399
CFU-C-8 cells = test system: CFU-C-8 cells; parameters: method as in PMID 19145362
mature T-lymphocyte = test system: mature T-lymphocyte; parameters: method as in PMID 12360601; settings: indicated by changed CD25+ and CD69+ markers
leukocytes = test system: leukocytes; parameters: method as in ref 75 = [75]; 75. Vinogradova Y.E. Deigin V.I. Korotkov A.M. Semina O.V. Sements T.N. Poverenny A.M. Use of Thymogen for the treatment of patients with diseases of the blood system. The influence of Thymogen on the; settings: patients after polychemotherapy receiving Thymogen
[4] = experimental group (29 patients)

## Cyclosporine [reference compound]
[1]
  Protective effect on hematopoietic progenitor cells after Cytosar treatment: had no effect
autoantibodies
  Effective dose, prophylactic regimen: 20 to 50 mg/kg
autoantibodies; prophylactic regimen
  Dose at which statistically significant effect was achieved: 50 mg/kg

## D-Glu(D-Trp) [Thymodepressin]
Thymocyte regeneration
  Influence on thymocyte regeneration (restoring E-rosette-forming units): effective inhibitors of thymocyte regeneration
[2]
  Cloning efficiency of hematopoietic stem cell progenitors: suppresses the cloning efficiency of all hematopoietic stem cell progenitors
[3]
  Yield of colonies compared to the control animals: approximately four times
Bone marrow cells
  Rate of dividing bone marrow cells: below that of the intact control
Bone marrow
  Bone marrow cell number (cellularity): restored to an intact level
[1]
  Protective effect on hematopoietic progenitor cells after Cytosar treatment: completely protected
[1]; two days before Cytosar, after 3 h and up to seven days
  Number of CFU-S-8 colonies: restored the number of CFU-S-8 colonies to an intact level
autoantibodies
  Dose of most effective immunosuppression, therapeutic regimen: 0.7 mg/kg
autoantibodies; doses 0.14, 0.35 and 0.7 mg/kg
  Immunosuppressive effect, prophylactic regimen: pronounced immunosuppressive effect
  Immunosuppressive effect, therapeutic regimen: distinct immunosuppressive effect
autoantibodies; prophylactic regimen
  Persistence of effect after the end of the drug administration: over ten weeks
Psoriasis vulgaris; [4]
  Clinical improvement: 13 patients
  Significant clinical improvement: 16 patients
Psoriasis vulgaris; experimental group (29 patients), 1st day of treatment, i/m 1 mL 0.1% solution
  PASI (Psoriasis Area and Severity Index): 26.8
Psoriasis vulgaris; experimental group, 21st day, three i/m courses of 1 mL 0.1% solution daily for five days
  PASI (Psoriasis Area and Severity Index): 8.6
Psoriasis vulgaris; experimental group, day 1 to day 21
  Decrease in the PASI index: 70%
CFU-C-8 cells; experimental animal, after administration of the peptide
  Number of leucocytes in the blood: dose-dependent transient decrease
CFU-C-8 cells; in vitro and in vivo
  Number of committed CFU-C-8 cells in the S-phase of the cell cycle: reducing the number of committed CFU-C-8 cells in the S-phase
Mature T-lymphocyte
  Mature T-lymphocyte activation: suppression of mature T-lymphocyte activation

## D-Glu-D-Trp
Thymocyte regeneration
  Influence on thymocyte regeneration (restoring E-rosette-forming units): effective inhibitors of thymocyte regeneration

## L-Glu-L-Trp [Thymogen]
Thymocyte regeneration
  Influence on thymocyte regeneration (restoring E-rosette-forming units): stimulating activity
leukocytes
  Average leukocyte count compared to the group receiving protocol treatment: doubled

## L-Glu–(L-Trp)-OH
Thymocyte regeneration
  Influence on thymocyte regeneration (restoring E-rosette-forming units): stimulating activity
